The values that follow come from ChEMBL document CHEMBL1201862, “PubChem BioAssay data set” (2004).

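Compound exposure: 48 hours, 5 concentrations, 96-well plates. GI50 = concentration required for 50% inhibition of growth.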 Activity calls are given as the source filed them. Cut-off read from the data, not from the text of the source: active = GI50 up to about 1.1 µM and inactive = higher. A value given as a limit tells only on which side of the number the result lay.

Among the test systems are A549; EKVX; HCT-116; HOP-18; HOP-62; HOP-92; HT-29; LOX IMVI; NCI-H460; OVCAR-4; OVCAR-8; RPMI-8226; SF-539; SK-MEL-28; SK-OV-3; SW-620; HCT-15.
Test in all cases: DTP human tumour cell line panel, 48 h

In the case of `Cn1cnc([N+](=O)[O-])c1Sc1nccc(O)n1`, the GI50 with A549, in the assay with EKVX, in the assay with HCT-116, with HOP-18, in the assay with HOP-62 and with HOP-92 was > 100 µM (inactive) throughout. Besides, the GI50 with HT-29, with LOX IMVI, in the assay with NCI-H460, in the assay on OVCAR-4, in the assay with OVCAR-8 and in the assay with RPMI-8226 was > 100 µM (inactive) throughout. Moreover, the GI50 with SF-539, in the assay on SK-MEL-28, in the assay on SK-OV-3 and in the assay on SW-620 was > 100 µM (inactive) throughout.

With `C/C(=C1/N=C(c2cc([N+](=O)[O-])ccc2Cl)N(C2=CC=C(Cl)CC2)C1=O)c1cc2ccccc2oc1=O`, the GI50 in the assay with A549 is 27.9 µM (inactive); in the assay on EKVX, > 100 µM (inactive); in the assay on HCT-116, 37.4 µM (inactive); in the assay with HOP-18, 21.2 µM (inactive); in the assay with HOP-62 it was 31.5 µM (inactive); in the assay with HT-29, 63.4 µM (inactive). Further, the GI50 with LOX IMVI is 20.4 µM (inactive); with NCI-H460, 28 µM (inactive); in the assay on OVCAR-4, 24.4 µM (inactive); in the assay on OVCAR-8, 51.5 µM (inactive); in the assay on RPMI-8226, 32.4 µM (inactive); in the assay with SF-539 it was 10.7 µM (inactive). Moreover, the GI50 in the assay with SK-MEL-28 was 26.3 µM (inactive); in the assay on SK-OV-3, > 100 µM (inactive); with SW-620, 36.5 µM (inactive).

For `COC(=O)C1=C(C)N(NC(=O)c2ccccc2)C2(O)CCCC(=O)C12C` (configuration not stated), the GI50 in the assay with A549 was > 100 µM (inactive); in the assay on HCT-116, > 100 µM (inactive); with HCT-15, above 100 µM; in the assay with HOP-18, < 0.01 µM (active); in the assay on HOP-92, > 100 µM (inactive); in the assay on HT-29, > 100 µM (inactive). The GI50 in the assay on LOX IMVI, in the assay on OVCAR-4, in the assay with OVCAR-8, with RPMI-8226, in the assay with SF-539 and with SK-MEL-28 was > 100 µM (inactive) each time. In addition, the GI50 in the assay with SK-OV-3 and in the assay on SW-620 was > 100 µM (inactive) each time.

For `O=[N+]([O-])c1cccc(C2=NOC3CCCC23)c1` (configuration not stated), the GI50 with A549 was > 100 µM (inactive); with EKVX, > 100 µM (inactive); with HCT-116 it was > 100 µM (inactive); in the assay on HCT-15, above 100 µM; with HOP-18, > 100 µM (inactive); with HOP-62 it was > 100 µM (inactive). For the same compound, the GI50 with HOP-92, in the assay on HT-29, with NCI-H460, in the assay with OVCAR-4, with OVCAR-8 and with RPMI-8226 was > 100 µM (inactive) in each case. The GI50 in the assay on SF-539, with SK-MEL-28, with SK-OV-3 and in the assay on SW-620 was > 100 µM (inactive) throughout.

`CCOC(OCC)(OCC)C(Br)CC` (configuration not stated): the GI50 with A549 was > 100 µM (inactive); in the assay on EKVX, > 100 µM (inactive); in the assay on HCT-116, 0.0281 µM (active); in the assay on HCT-15, above 10 µM; in the assay with HOP-18, > 100 µM (inactive); in the assay on HOP-62 it was > 100 µM (inactive). Moreover, the GI50 with HOP-92 is > 100 µM (inactive); in the assay on HT-29 it was 53.6 µM (inactive); in the assay on LOX IMVI it was 88.1 µM (inactive); with NCI-H460, > 100 µM (inactive); with OVCAR-4, > 100 µM (inactive); with OVCAR-8, > 100 µM (inactive). In addition, the GI50 in the assay with RPMI-8226 was 18.8 µM (inactive); in the assay with SF-539, > 100 µM (inactive); in the assay with SK-MEL-28, > 100 µM (inactive); with SK-OV-3, > 100 µM (inactive).

`CCN(CC)C(=S)SS(C)(=O)=O`: the GI50 in the assay on EKVX was 37.2 µM (inactive); in the assay on HCT-116, 26.4 µM (inactive); with HCT-15, 13.4 µM; in the assay with HOP-18, 38.2 µM (inactive); in the assay on HOP-62 it was 18.7 µM (inactive); with HOP-92, 30.6 µM (inactive). For the same compound, the GI50 was 17.3 µM (inactive) in the assay on HT-29; 13.6 µM (inactive) in the assay on LOX IMVI; 19.6 µM (inactive) with OVCAR-4; 19.8 µM (inactive) in the assay with OVCAR-8; 22 µM (inactive) in the assay with SF-539; 75.7 µM (inactive) with SK-OV-3. In the assay on SW-620, the GI50 was 18.5 µM (inactive).

On to `C/C=C/CP(=O)(c1ccccc1)c1ccccc1`, for which the GI50 was > 100 µM (inactive) in the assay with A549; > 100 µM (inactive) in the assay with EKVX; > 100 µM (inactive) in the assay with HCT-116; above 100 µM in the assay with HCT-15; > 100 µM (inactive) in the assay with HOP-18; > 100 µM (inactive) in the assay on HOP-62. In addition, the GI50 with HT-29, with LOX IMVI, in the assay with NCI-H460, in the assay with OVCAR-4, in the assay with OVCAR-8 and in the assay with RPMI-8226 was > 100 µM (inactive) each time. Further, the GI50 with SF-539, in the assay with SK-MEL-28, with SK-OV-3 and in the assay on SW-620 was > 100 µM (inactive) in each case.

With `CCOC(=O)C12CC1(C(=O)OCC)C1CCC2C1` (configuration not stated), the GI50 with A549 was > 100 µM (inactive); in the assay with HCT-116 it was > 100 µM (inactive); in the assay on HCT-15 it was above 100 µM; in the assay on HOP-18 it was > 100 µM (inactive); in the assay on HOP-62, > 100 µM (inactive); in the assay with HOP-92 it was 23.8 µM (inactive). The GI50 in the assay on HT-29, in the assay with LOX IMVI, in the assay on NCI-H460, in the assay on OVCAR-4, in the assay on OVCAR-8 and in the assay on RPMI-8226 was > 100 µM (inactive) each time. In addition, the GI50 in the assay on SK-MEL-28, in the assay on SK-OV-3 and in the assay on SW-620 was > 100 µM (inactive) throughout.

Turning to `CC(=O)OCC1OC(Nc2nc(O)n(C)c(=O)c2-c2csc(N)n2)C(OC(C)=O)C(OC(C)=O)C1OC(C)=O` (configuration not stated), the GI50 with A549 is > 100 µM (inactive); with HCT-116 it was > 100 µM (inactive); in the assay with HCT-15, above 100 µM; with HOP-18, 20 µM (inactive); in the assay with HOP-62 it was > 100 µM (inactive); with HOP-92, > 100 µM (inactive). Also, the GI50 with HT-29, in the assay with LOX IMVI, in the assay with NCI-H460, in the assay on OVCAR-4, in the assay on OVCAR-8 and with RPMI-8226 was > 100 µM (inactive) each time. Further, the GI50 with SF-539, in the assay on SK-MEL-28, with SK-OV-3 and with SW-620 was > 100 µM (inactive) in each case.

For orientation: GI50 means the concentration that inhibits growth by half.
